Assay results from ChEMBL document CHEMBL5614420, “Development of peptoid-based heteroaryl-decorated histone deacetylase (HDAC) inhibitors with dual-stage antiplasmodial activity” (Eur J Med Chem, 2024).

Assays:
[1] = Cytotoxicity against HEK293 cells incubated for 24 hrs by Neutral Red Uptake assay; details: human
in vitro [2] = details: human, liver microsomes
[3] = Selectivity index, ratio of IC50 for HEK293 cells to IC50 for exo-erythrocytic stage Plasmodium berghei sporozoites expressing GFP-Luc fused genes infected in human HepG2-A16-CD81 cells expressing EGFP; type: toxicity, cell-based; details: read-out: Ratio IC50
Plasmodium falciparum [4] = assay: Resistance index, ratio of IC50 for multidrug-resistant asexual ring-stage Plasmodium falciparum Dd2 infected in erythrocytes to IC50 for CQ-sensitive asexual ring-stage Plasmodium falciparum 3D7 infected in erythrocytes; type: functional
Plasmodium falciparum [5] = assay: Antiplasmodial activity against multidrug-resistant asexual ring-stage Plasmodium falciparum Dd2 infected in erythrocytes assessed as parasitic growth inhibition measured after 72 hrs by ELISA; type: functional, organism-based; details: Dd2, Erythrocyte
Plasmodium falciparum [6] = assay: Antiplasmodial activity against CQ-sensitive asexual ring-stage Plasmodium falciparum 3D7 infected in erythrocytes assessed as parasitic growth inhibition measured after 72 hrs by ELISA; type: functional, organism-based; details: 3D7, Erythrocyte
Plasmodium berghei [7] = assay: Antiplasmodial activity against exo-erythrocytic stage Plasmodium berghei sporozoites expressing ANKA-GFPLuc-SMCON infected in human HepG2-A16-CD81 cells expressing EGFP assessed as parasitic growth inhibition by […]; type: functional, organism-based
in vitro [8] = details: human, liver microsomes; remark: listed apart in the source
[9] = Selectivity index, ratio of IC50 for HEK293 cells to IC50 for multidrug-resistant asexual ring-stage Plasmodium falciparum Dd2 infected in erythrocytes; details: human
[10] = Selectivity index, ratio of IC50 for HEK293 cells to IC50 for CQ-sensitive asexual ring-stage Plasmodium falciparum 3D7 infected in erythrocytes; details: human
[11] = Selectivity index, ratio of IC50 for human NFF cells to IC50 for synchronous ring-stage Plasmodium falciparum 3D7 infected in human erythrocytes
[12] = Cytotoxicity against human NFF cells incubated for 72 hrs by SRB assay
Plasmodium berghei [13] = assay: Antiplasmodial activity against exo-erythrocytic stage Plasmodium berghei sporozoites expressing GFP-Luc fused genes infected in human HepG2-A16-CD81 cells expressing EGFP assessed as parasitic growth inhibition measured for 20 hrs by Bright-Glo Luciferase Assay; type: functional, organism-based; details: HepG2-A16-CD81, 20 h
Plasmodium falciparum [14] = assay: Antiplasmodial activity against synchronous ring-stage Plasmodium falciparum 3D7 infected in human erythrocytes assessed as parasitic growth inhibition measured after 48 hrs by [3H]hypoxanthine incorporation assay; type: functional, organism-based; details: 3D7, Erythrocyte
Plasmodium falciparum [15] = assay: Antiplasmodial activity against synchronous ring-stage Plasmodium falciparum Dd2 infected in human erythrocytes assessed as parasitic growth inhibition measured after 48 hrs by [3H]hypoxanthine incorporation assay; type: functional, organism-based; details: Dd2, Erythrocyte

Compound	IC50 at 24 h [1] [nM]	selectivity ratio [11]	IC50 at 72 h [12] [nM]	IC50 (Plasmodium falciparum [14]) [nM]	IC50 (Plasmodium falciparum [15]) [nM]	further results
CC(C)c1ccc(C(=O)N(CC(=O)NCc2ccccc2)Cc2ccc(C(=O)NO)cc2)cc1	69000	–	–	–	–	half-life at 1 h, 1 µM (in vitro [2]): 12.4 min; selectivity ratio [3]: 4310; Ratio IC50 (Plasmodium falciparum [4]): 4; IC50 (Plasmodium falciparum [5]): 243 nM; IC50 (Plasmodium falciparum [6]): 63 nM; IC50 (Plasmodium berghei [7]): 16 nM; microsomal CLint at 1 h, 1 µM (in vitro [8]): 112 µL/min/mg; selectivity ratio [9]: 284; selectivity ratio [10]: 1100
C/C=C1\NC(=O)[C@H]2CSSCC/C=C/[C@H](CC(=O)N[C@H](C(C)C)C(=O)N2)OC(=O)[C@H](C(C)C)NC1=O [ROMIDEPSIN]	–	< 1	1	–	–	–
O=C1C(O)=C([C@H]2CC[C@H](c3ccc(Cl)cc3)CC2)C(=O)c2ccccc21 [ATOVAQUONE]	–	–	–	–	–	IC50 (Plasmodium berghei [13]): < 0.051 nM
O=C(/C=C/c1cccc(S(=O)(=O)Nc2ccccc2)c1)NO [BELINOSTAT]	–	40	2370	60	130	–
CCN(CC)CCCC(C)Nc1ccnc2cc(Cl)ccc12 (configuration not stated) [CHLOROQUINE]	265000	–	–	–	–	–
Cc1[nH]c2ccccc2c1CCNCc1ccc(/C=C/C(=O)NO)cc1 [PANOBINOSTAT]	–	7	70	10	30	–
